For ten compounds, MIC results are on record in ChEMBL document CHEMBL1151264, “Investigation of brominated tryptophan alkaloids from two thorectidae sponges: Thorectandra and Smenospongia” (2005).

In general, MIC refers to the lowest concentration that inhibits growth of the organism. A higher MIC goes with weaker potency.

Each structure is given as a SMILES string. In brackets after ≈: the same amount, converted by molar mass.

This assay deals with Staphylococcus epidermidis. The assay can be described thus: Antibacterial activity against Staphylococcus epidermidis ATCC 12228. In kind it is functional.
`COC1(Cc2c[nH]c3cc(Br)ccc23)C(=O)N(C)C(=N)N1C` (stereo not given) returned an MIC of 100 µg/mL (≈ 274 µM).

For `C[N+](C)(C)[C@@H](Cc1c[nH]c2ccc(Br)cc12)C(=O)O`, the lowest concentration to inhibit growth (MIC) was 100 µg/mL.

With `CCOC1(Cc2c[nH]c3cc(Br)ccc23)C(=O)N(C)C(=N)N1C` (stereo not given), the minimal inhibitory concentration (MIC) was determined as 12.5 µg/mL (≈ 33 µM).

In turn, `COC(=O)Cc1c[nH]c2cc(Br)ccc12` gave an MIC of 6.25 µg/mL (≈ 23.3 µM).

Take `CN(C)[C@@H](Cc1c[nH]c2ccc(Br)cc12)C(=O)O`: the minimal inhibitory concentration (MIC) worked out at 25 µg/mL (≈ 80.3 µM).

`CN1C(=N)N(C)/C(=C/c2c[nH]c3ccccc23)C1=O` [APLYSINOPSIN] showed an MIC of 25 µg/mL (≈ 98.3 µM).

The compound `CN1C(=N)N(C)C(Cc2c[nH]c3cc(Br)ccc23)C1=O` (stereo not given) displayed an MIC of 25 µg/mL (≈ 74.6 µM).

`CN1C(=N)N(C)C(O)(Cc2c[nH]c3cc(Br)ccc23)C1=O` (stereo not given) showed an MIC of 12.5 µg/mL (≈ 35.6 µM).

As to `CN[C@H](CC(C)C)C(=O)N[C@H]1C(=O)N[C@@H](CC(N)=O)C(=O)N[C@H]2C(=O)N[C@H]3C(=O)N[C@H](C(=O)N[C@H](C(=O)O)c4cc(O)cc(O)c4-c4cc3ccc4O)[C@H](O)c3ccc(c(Cl)c3)Oc3cc2cc(c3O[C@@H]2O[C@H](CO)[C@@H](O)[C@H](O)[C@H]2O[C@H]2C[C@](C)(N)[C@H](O)[C@H](C)O2)Oc2ccc(cc2Cl)[C@H]1O` [VANCOMYCIN], the minimum inhibitory concentration (MIC) worked out at 0.625 µg/mL (≈ 0.431 µM).

`COC(=O)c1c[nH]c2cc(Br)ccc12` registered an MIC of 50 µg/mL (≈ 197 µM).
